Measurements as given in patent US20070225363A1, “Methods and Agents for Inhibiting Dynamin-Dependent Endocytosis” (the University of Newcastle Research Associates Ltd., priority 2003, published 2007).
Entries after “also recorded” stand apart in the source; their conditions may differ. Each block holds one compound with its values, some of them ahead of it.

Tests used:
[1] = target: T1, dynamin I (Ovis aries, UniProt A0ACI6NZN1); test: Dynamin I GTPase assay ([γ-32P]GTP hydrolysis); format: biochemical, sheep
T1 sequence (A0ACI6NZN1 entry or part of it): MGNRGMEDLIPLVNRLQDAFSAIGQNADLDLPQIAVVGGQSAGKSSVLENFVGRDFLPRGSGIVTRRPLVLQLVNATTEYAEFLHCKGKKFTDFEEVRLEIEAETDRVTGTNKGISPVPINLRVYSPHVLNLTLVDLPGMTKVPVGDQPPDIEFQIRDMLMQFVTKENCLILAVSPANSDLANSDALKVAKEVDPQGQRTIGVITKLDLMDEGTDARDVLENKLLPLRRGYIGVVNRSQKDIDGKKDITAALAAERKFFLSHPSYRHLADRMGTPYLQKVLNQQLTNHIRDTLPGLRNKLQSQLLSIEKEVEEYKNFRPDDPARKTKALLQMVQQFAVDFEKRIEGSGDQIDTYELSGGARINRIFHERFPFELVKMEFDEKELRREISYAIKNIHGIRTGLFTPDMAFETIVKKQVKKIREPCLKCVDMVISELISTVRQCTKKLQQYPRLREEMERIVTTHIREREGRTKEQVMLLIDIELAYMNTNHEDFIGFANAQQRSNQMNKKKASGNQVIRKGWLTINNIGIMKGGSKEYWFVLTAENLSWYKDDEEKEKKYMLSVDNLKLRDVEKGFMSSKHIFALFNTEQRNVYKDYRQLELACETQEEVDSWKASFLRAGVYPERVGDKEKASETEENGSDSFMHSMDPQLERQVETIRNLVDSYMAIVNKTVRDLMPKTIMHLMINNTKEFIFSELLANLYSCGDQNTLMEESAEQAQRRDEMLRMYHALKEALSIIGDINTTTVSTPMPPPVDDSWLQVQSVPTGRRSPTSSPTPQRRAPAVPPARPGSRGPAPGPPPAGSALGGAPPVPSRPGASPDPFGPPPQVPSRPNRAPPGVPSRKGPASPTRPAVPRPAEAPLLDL
Method: (§1) The plasmid for GST-Amph2-SH3 (muscle Amph2) (Butler et al., 1997) was provided by Pieto DeCamilli, Yale, Connecticut, USA, in pGEX2T vectors. The plasmid was grown in E. coli and the GST-Amph2-SH3 fusion protein was purified on glutathione (GSH)-Sepharose by elution with 10 mM reduced GSH in 20 mM Tris-HCl, pH 7.5, dialysed against the same buffer without GSH and stored at 4° C. Dynamin was purified from sheep brain by extraction from the peripheral membrane fraction of whole brain (Robinson et al., 1993) and affinity purification on GST-Amph2-SH3-sepharose as previously described (Marks and McMahon., 1998), yielding 8 mg protein from 250 g sheep brain. Recombinant dynamin II was expressed in insect cells and was a gift from Dr Sandra Schmid (Scripps, San Diego, Calif.). Recombinant dynamin I lacking the PH domain (dynamin PH, provided by Robin Scaife) was expressed in insect cells using baculoviral infection (Salim et al., 1996).
(§2) Dynamin GTPase activity was determined by hydrolysis of [ ? -^32P]GTP by a method modified from that described previously (Robinson et al., 1993). Briefly, purified dynamin I or dynamin II (0.2 μg/tube) was incubated in GTPase buffer (10 mM Tris, 10 mM NaCl, 2 mM Mg^2+, 0.05% Tween 80, pH 7.4, 1 μg/ml leupeptin and 0.1 mM PMSF) and a GTP cocktail containing 0.3 mM GTP and 1.3 μCi [ ? -^32P]-GTP in the presence or absence of varying concentrations of inhibitors or DMSO vehicle for 10 min at 30 C. The final assay volume was 40 μl. Dynamin activity was measured as either basal or phospholipid-stimulated with the addition of 5 μg/ml L-phosphatidylserine. The reaction was terminated with 100 μl of GTPase stop buffer (2% formic add, 8% acetic acid, pH 1.9), followed by 600 μl of acid-washed charcoal solution (7% charcoal in acidic solution (w/v)) and 100 μl BSA (5 mg/ml). After centrifuging for 5 min (13,000 rpm at room temperature), 200 μl of each supernatant was counted in a -counter for the release of ^32Pi from [ ? -^32P]-GTP.

[2] = system: ΔPH domain dynamin I; test: GTPase assay with recombinant dynamin I lacking the PH domain; format: biochemical
Method: as §1
as §2, with “-^32P]-GTP. […]” for “-^32P]-GTP.”

[3] = system: dynamin II; test: [α-32P]-GTP binding assay, dynamin II
Method: (§3) The [α-^32P]-GTP-binding assay was performed in the wells of a 96-well microtitre plate. Dynamin (0.2 μg/well) was added to GTPase buffer and incubated for 10 min at 4 C in the dark. [α-^32P]-GTP (2 μCi/tube) was then added to the reaction and incubated for a further 10 min at 4 C. in the dark. The microtitre plate was then irradiated with a short wavelength ultraviolet lamp at […] for 30 min at a distance of 8 cm. The specificity of photolabelling was determined by comparing the labelling in the presence and absence of 1 mM cold GTP. Samples were then applied to nitrocellulose membranes by aspiration through the wells of a 24 well slot blotter. The nitrocellulose was washed 3 times with PBS and dried. Bound nucleotide was detected by a phosphorimager (Molecular Dynamics).

[4] = target: T1, dynamin I; test: [α-32P]-GTP binding assay, dynamin I; design: species or system sheep
Method: as §3

[5] = system: isolated nerve terminals (synaptosomes); test: Synaptic vesicle endocytosis, FM2-10 uptake in synaptosomes; format: cell-based, rat; settings: 100 μM
Method: Isolated nerve terminals (synaptosomes) were prepared from rat cerebral cortex by centrifugation on discontinuous percoll gradients (Dunkley et al., 1986). Fractions 3 and 4 were pooled and used in all experiments. Endocytosis was measured using uptake of the fluorescent dye FM2-10 as previously described (Cousin and Robinson 2000a). Synaptosomes (0.6 mg in 2 ml) were incubated for 5 min at 37° C. in plus or minus Ca^2+ Krebs-like solution. FM2-10 ([…]) was added 1 min before stimulation with 30 mM KCl (S1). As FM2-10 is taken up by vesicles via endocytosis at the S1 phase of stimulation, synaptosomes were incubated with antagonists during this phase. […] After 2 min of stimulation synaptosomes were washed twice in plus Ca^2+ solution containing 1 mg/ml bovine serum albumin. The washing steps remove non-internalised FM2-10 and the tyrphostins. Washed synaptosomes were resuspended in plus Ca^2+ solution at 37° C., transferred to a fluorimeter cuvette and stimulated with a standard addition of 30 mM KCl (S2). The standard S2 stimulation releases all accumulated FM2-10 and allows endocytosis to be measured as the decrease in FM2-10 fluorescence due to dye release into solution (excitation 488 nm, emission 540 nm).
Endocytosis was calculated as the decrease in absolute fluorescence stimulated by 30 mM KCl at S2. […] Retrieval efficiency is a more accurate measure of endocytosis since it takes into account the amount of prior exocytosis. Retrieval efficiency was calculated as endocytosis/exocytosis, where endocytosis is defined as above and exocytosis as Ca^2+-dependent glutamate release after 2 min of stimulation. The retrieval efficiency value was normalised to a ratio of 1.0 for 30 mM KCl.

[6] = target: T2, Rab3A (Homo sapiens, UniProt P20336); test: [α-32P]-GTP binding to small G protein Rab3A; settings: data not shown
T2 sequence (P20336 1-220): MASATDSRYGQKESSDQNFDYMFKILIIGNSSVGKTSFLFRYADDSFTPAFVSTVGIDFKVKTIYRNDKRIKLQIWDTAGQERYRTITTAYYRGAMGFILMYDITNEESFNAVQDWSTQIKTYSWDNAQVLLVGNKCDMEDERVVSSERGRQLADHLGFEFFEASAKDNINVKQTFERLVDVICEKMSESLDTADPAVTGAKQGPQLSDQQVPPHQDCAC
Method: (§4) Competition of these drugs with GTP for the active site of 4 small G proteins (Rab3A, Ras, Arf2, RalA) was also tested.

[7] = system: isolated nerve terminals (synaptosomes); test: Glutamate release assay (exocytosis) in synaptosomes; format: cell-based, rat; settings: 30 mM KCl
Method: The glutamate release assay was performed using enzyme-linked fluorescent detection of released glutamate (Cousin and Robinson., 2000a, b). Briefly, synaptosomes (0.6 mg in 2 ml) were resuspended in either plus (1.2 mM CaCl2) or minus (1 mM EGTA) Ca^2+ Krebs-like solution (118.5 mM NaCl, 4.7 mM KCl, 1.18 mM MgCl2, 0.1 mM Na2HPO4, 20 mM Hepes, 10 mM glucose, pH 7.4) at 37° C. Experiments were started after addition of 1 mM NADP^+. After 1 minute 50 U of glutamate dehydrogenase was added and the synaptosome suspension was stimulated after 4 minutes with 30 mM KCl. Increases in fluorescence due to production of NADPH were monitored in a Perkin-Elmer LS-50B spectrofluorimeter at 340 nm excitation and 460 nm emission. Experiments were standardised by the addition of 4 nmol of glutamate. Data is presented as Ca^2+-dependent glutamate release, calculated as the difference between release in plus and minus Ca^2+ solution for identical stimulation conditions.

[8] = target: T3, RalA (Homo sapiens, UniProt P11233); test: [α-32P]-GTP binding to small G protein RalA; settings: data not shown
T3 sequence (P11233 1-206): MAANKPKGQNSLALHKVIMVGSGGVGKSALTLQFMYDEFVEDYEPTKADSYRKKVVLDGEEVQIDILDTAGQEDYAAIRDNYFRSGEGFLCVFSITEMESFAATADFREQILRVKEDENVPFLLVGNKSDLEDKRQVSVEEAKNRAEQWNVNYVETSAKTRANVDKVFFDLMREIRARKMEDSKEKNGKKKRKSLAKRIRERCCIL
Method: as §4

[9] = system: Swiss 3T3 cells; test: Texas Red-transferrin uptake in Swiss 3T3 cells; format: cell-based; settings: drug added 15 or 60 minutes before Tf-TxR
Method: (§5) Transferrin (Tf) uptake was analysed in Swiss 3T3 and HER14 cells based on methods previously described (van der Bliek et al., 1993). Briefly, cells were plated to 60% confluency in DMEM medium plus 10% foetal calf serum after which the cells were incubated overnight (8-10 hours) in DMEM minus foetal calf serum. Texas red-transferrin (Tf-TxR, Molecular Probes, Oregon) was added to a final concentration of 5 μg/ml and the cells incubated at 37° C. for 10 minutes. Cell surface staining was removed by incubating the cells in an ice cold acid wash solution (0.2 M acetic acid +0.5 M NaCl, pH 2.8) for 15 minutes. Cells were immediately fixed with 4% paraformaldehyde for 10 minutes then washed 3 times with PBS. Nuclei were stained using DAPI (Molecular Probes, Oregon). Slides were mounted using DABCO and the fluorescence was monitored using a Leica DMLB bright field microscope and SPOT digital camera.

[10] = system: HER14 cells; test: Texas Red-transferrin uptake in HER14 cells; format: cell-based; settings: drug added 15 or 60 minutes before Tf-TxR
Method: as §5

[11] = system: Ras; test: [α-32P]-GTP binding to small G protein Ras; settings: data not shown
Method: as §4

[12] = system: Arf2; test: [α-32P]-GTP binding to small G protein Arf2; settings: data not shown
Method: as §4

effect on dynamin GTPase activity ([1]; alone, data not shown): without effect
Compound: O[C@H](CS)[C@H](O)CS (racemic) [Dithiothreitol, dithiothreitol]

Compound: CN(C)CCCn1cc(C2=C(c3c[nH]c4ccccc34)C(=O)NC2=O)c2ccccc21 [BIM I]
ability to inhibit GTPase activity of dynamin I lacking the PH domain [2]: lost its ability to inhibit
[α-32P]-GTP binding to dynamin II in the presence of drug [3]: compete with GTP
[α-32P]-GTP binding to dynamin I in the presence of drug [4]: compete with GTP

Compound: COc1cc(C=C(C#N)C(=O)NCCCNC(=O)C(C#N)=Cc2cc(O)c(O)c(OC)c2)cc(O)c1O [Compound 24, 2-Cyano-N-{3-[2-cyano-3-(3,4-dihydroxy-methoxyphenyl)-acryloylamino]-propyl}-3-(3,4-dihydroxy-5-methoxyphenyl)-acrylamide]
IC50 ([1]; library 1 (dimeric) compounds): 5 ± 1 µM

Compound: N#C/C(=C\c1ccc(O)c(O)c1)C(=O)N1CCN(C(=O)/C(C#N)=C/c2ccc(O)c(O)c2)CC1 [Compound 71]
dynamin inhibition ([1]; screen at ≦100 μM): no dynamin inhibition

Compound: N#C/C(=C\c1ccc(O)c(O)c1)C(N)=S [tyrphostin A47]
inhibition of synaptic vesicle endocytosis (SVE) ([5]; synaptosomes): did not
retrieval efficiency (endocytosis/exocytosis) ([5]; 1 indicates no drug effect): 0.95 (±0.05)
inhibitory potency on dynamin ([1]; freshly prepared solutions): no inhibitory potency
inhibitory potency on dynamin ([1]; stocks kept at room temperature for 24 hrs): weak potency
effect on [α-32P]-GTP binding to Rab3A [6]: neither drug affected
exocytosis (Ca2+-dependent glutamate release) [7]: no effect
effect on [α-32P]-GTP binding to RalA [8]: neither drug affected
internalisation of texas-red labelled transferrin into Swiss 3T3 cells [9]: not as dramatically as bis-tyrphostin
internalisation of texas-red labelled transferrin into HER14 cells [10]: not as dramatically as bis-tyrphostin
effect on [α-32P]-GTP binding to Ras [11]: neither drug affected
effect on [α-32P]-GTP binding to Arf2 [12]: neither drug affected
[α-32P]-GTP binding to dynamin I in the presence of drug [4]: not seen to decrease; also recorded: not affected
